{
  "source": "patent US8883782B2",
  "about": "“Spiro-tetracyclic ring compounds as beta-secretase modulators and methods of use” (Amgen Inc., priority 2010, dated 2014)",
  "data": [
    {"molecular_target": "Beta Secretase enzyme (BACE) (Homo sapiens, UniProt P56817)", "sequence (P56817 46-501, species assumed)": "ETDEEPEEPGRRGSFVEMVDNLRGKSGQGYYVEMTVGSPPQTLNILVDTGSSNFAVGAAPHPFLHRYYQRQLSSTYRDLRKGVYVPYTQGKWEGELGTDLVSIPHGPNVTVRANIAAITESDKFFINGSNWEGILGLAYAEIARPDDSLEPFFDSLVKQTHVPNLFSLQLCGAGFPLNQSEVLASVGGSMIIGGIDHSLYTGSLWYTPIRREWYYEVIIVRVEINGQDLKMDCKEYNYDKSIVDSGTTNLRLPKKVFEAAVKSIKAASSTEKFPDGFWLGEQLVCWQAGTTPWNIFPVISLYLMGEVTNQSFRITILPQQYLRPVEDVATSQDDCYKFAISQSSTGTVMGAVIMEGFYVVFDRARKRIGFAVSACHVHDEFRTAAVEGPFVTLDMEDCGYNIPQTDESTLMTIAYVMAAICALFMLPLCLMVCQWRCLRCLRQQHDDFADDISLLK", "test": "In vitro enzymatic BACE FRET (fluorescence resonance energy transfer) assay", "assay_type": "biochemical", "settings": "BACE 1 FRET assay (uM)", "description": "(§1) In Vitro Enzymatic Bace Fret (Fluorescence Resonance Energy Transfer) Assay (Enzyme Assay Data in the Example Table I)\n(§2) The assay buffer used in this screen is 0.05 M acetate, pH 4.2, 10% DMSO final, 100 uM genapol (which is a nonionic detergent, below its Critical Micelle Concentration). […] This assay is effectively started by the addition of FRET substrate (50 nM) and the combination is incubated for one hour. The FRET assay is terminated with by addition of Tris buffer, which raises the pH to neutrality, and the fluorescence is determined. The FRET substrate is a peptide with commercially available fluorophore and quencher, on opposite sides of the BACE cleavage site.", "units": {"IC50": "µM"}, "values": [
      {"smiles": "NC1=N[C@]2(CO1)c1cc(C3=CCOCC3)ccc1Oc1ccc(-c3cccnc3F)cc12", "note": "[Example 136, (R)-2′-(3,6-dihydro-2H-pyran-4-yl)-7′-(2-fluoropyridin-3-yl)-5H-spiro[oxazole-4,9′-xanthen]-2-amine 2,2,2-trifluoroacetate]", "IC50": 0.0026},
      {"smiles": "NC1=N[C@@]2(CO1)c1cc(-c3cccnc3F)ccc1Oc1cnc(N3CCC(F)(F)CC3)cc12", "note": "[Example 137, (S)-3-(4,4-difluoropiperidin-1-yl)-7-(2-fluoropyridin-3-yl)-5′H-spiro[chromeno[2,3-c]pyridine-5,4′-oxazol]-2′-amine]", "IC50": 0.0007},
      {"smiles": "NC1=N[C@@]2(CO1)c1cc(-c3cccnc3F)ccc1Oc1cnc(N3CCC(F)(F)C3)cc12", "note": "[Example 140, (S)-3-(3,3-difluoropyrrolidin-1-yl)-7-(2-fluoropyridin-3-yl)-5′H-spiro[chromeno[2,3-c]pyridine-5,4′-oxazol]-2′-amine]", "IC50": 0.0006}
    ]},
    {"molecular_target": "Beta Secretase enzyme (BACE) (Homo sapiens, UniProt P56817)", "test": "In vitro enzymatic BACE FRET (fluorescence resonance energy transfer) assay", "assay_type": "biochemical", "settings": "average IC50, enzyme assay; read-out: BACE 1 FRET assay", "description": "as §1, §2", "units": {"IC50": "µM"}, "values": [
      {"smiles": "NC1=N[C@@]2(CO1)c1cc(-c3cccnc3F)ccc1Oc1c2cc(-c2ccnc(F)c2)nc1F", "note": "[Example 152, (5S)-1-fluoro-7-(2-fluoro-3-pyridinyl)-3-(2-fluoro-4-pyridinyl)spiro[chromeno[2,3-c]pyridine-5,4′-[1,3]oxazol]-2′-amine]", "IC50": 0.002},
      {"smiles": "CC(C)(C)C#Cc1cc2c(cn1)Oc1ccc(-c3c(F)ccnc3F)cc1[C@@]21COC(N)=N1", "note": "[Example 165, (5S)-7-(2,4-difluoro-3-pyridinyl)-3-(3,3-dimethyl-1-butyn-1-yl)spiro[chromeno[2,3-c]pyridine-5,4′-[1,3]oxazol]-2′-amine]", "IC50": 0.002},
      {"smiles": "NC1=N[C@@]2(CO1)c1cc(-c3cncc(F)c3)ccc1Oc1c(F)cc([C@H]3CCOC3)cc12", "note": "[Example 296, (4S)-4′-fluoro-7′-(5-fluoro-3-pyridinyl)-2′-((3R)-tetrahydro-3-furanyl)spiro[1,3-oxazole-4,9′-xanthen]-2-amine]", "IC50": 0.0072},
      {"smiles": "NC1=N[C@@]2(CO1)c1cc(-c3cncc(F)c3)ccc1Oc1c(F)cc([C@@H]3CCOC3)cc12", "note": "[Example 297, (4S)-4′-fluoro-7′-(5-fluoro-3-pyridinyl)-2′-((3S)-tetrahydro-3-furanyl)spiro[1,3-oxazole-4,9′-xanthen]-2-amine]", "IC50": 0.0052},
      {"smiles": "NC1=N[C@@]2(CO1)c1cc(-c3cccnc3)c(F)cc1Oc1c(F)cc(C3=CCCOC3)cc12", "note": "[Example 298, (4S)-7′-(5,6-dihydro-2H-pyran-3-yl)-3′,5′-difluoro-2′-(3-pyridinyl)spiro[1,3-oxazole-4,9′-xanthen]-2-amine]", "IC50": 0.0968},
      {"smiles": "NC1=N[C@@]2(CO1)c1cc(-c3cccnc3F)ccc1Oc1c(F)cc([C@H]3CCOC3)cc12", "note": "[Example 299, (4S)-4′-fluoro-7′-(2-fluoro-3-pyridinyl)-2′-((3R)-tetrahydro-3-furanyl)spiro[1,3-oxazole-4,9′-xanthen]-2-amine]", "IC50": 0.0028},
      {"smiles": "NC1=N[C@@]2(CO1)c1cc(-c3cccnc3F)ccc1Oc1c(F)cc([C@@H]3CCOC3)cc12", "note": "[Example 300, (4S)-4′-fluoro-7′-(2-fluoro-3-pyridinyl)-2′-((3S)-tetrahydro-3-furanyl)spiro[1,3-oxazole-4,9′-xanthen]-2-amine]", "IC50": 0.0023},
      {"smiles": "NC1=N[C@@]2(CO1)c1cc(-c3ccccc3)ncc1Oc1c(F)cc(C3=CCOCC3)cc12", "note": "[Example 309, (5S)-7-(3,6-dihydro-2H-pyran-4-yl)-9-fluoro-3-phenylspiro[chromeno[2,3-c]pyridine-5,4′-[1,3]oxazol]-2′-amine]", "IC50": 0.0172},
      {"smiles": "NC1=N[C@@]2(CO1)c1cc(-c3c(F)ccnc3F)ccc1Oc1cnc(-c3ccnc(F)c3)cc12", "note": "[Example 397, (5S)-7-(2,4-difluoro-3-pyridinyl)-3-(2-fluoro-4-pyridinyl)spiro[chromeno[2,3-c]pyridine-5,4′-[1,3]oxazol]-2′-amine]", "IC50": 0.002},
      {"smiles": "NC1=N[C@@]2(CO1)c1cc(-c3c(F)ccnc3F)ccc1Oc1cnc(-c3ccncc3)cc12", "note": "[Example 398, (5S)-7-(2,4-difluoro-3-pyridinyl)-3-(4-pyridinyl)spiro[chromeno[2,3-c]pyridine-5,4′-[1,3]oxazol]-2′-amine]", "IC50": 0.002},
      {"smiles": "NC1=N[C@@]2(CO1)c1cc(-c3c(F)ccnc3F)ccc1Oc1cnc(Cl)cc12", "note": "[Example 399, (5S)-3-chloro-7-(2,4-difluoro-3-pyridinyl)spiro[chromeno[2,3-c]pyridine-5,4′-[1,3]oxazol]-2′-amine]", "IC50": 0.0599},
      {"smiles": "NC1=N[C@@]2(CO1)c1cc(-c3ccc(F)cc3)ccc1Oc1cnc(C3CCOCC3)cc12", "note": "[Example 400, (5S)-7-(4-fluorophenyl)-3-(tetrahydro-2H-pyran-4-yl)spiro[chromeno[2,3-c]pyridine-5,4′-[1,3]oxazol]-2′-amine]", "IC50": 0.0709},
      {"smiles": "NC1=N[C@@]2(CO1)c1cc(-c3cccc(Cl)c3)ccc1Oc1cnc(N3CCC(F)(F)C3)cc12", "note": "[Example 432, (5S)-7-(3-chlorophenyl)-3-(3,3-difluoro-1-pyrrolidinyl)spiro[chromeno[2,3-c]pyridine-5,4′-[1,3]oxazol]-2′-amine]", "IC50": 0.002},
      {"smiles": "NC1=N[C@]2(CO1)c1cc(-c3cccc(Cl)c3)ccc1Oc1cnc(N3CCC(F)(F)C3)cc12", "note": "[Example 433, (5R)-7-(3-chlorophenyl)-3-(3,3-difluoro-1-pyrrolidinyl)spiro[chromeno[2,3-c]pyridine-5,4′-[1,3]oxazol]-2′-amine]", "IC50": 0.025},
      {"smiles": "NC1=N[C@@]2(CO1)c1cc(-c3cccnc3)ccc1Oc1c2cc(-c2ccnc(F)c2)nc1F", "note": "[Example 491, (5S)-1-fluoro-3-(2-fluoro-4-pyridinyl)-7-(3-pyridinyl)spiro[chromeno[2,3-c]pyridine-5,4′-[1,3]oxazol]-2′-amine]", "IC50": 0.002},
      {"smiles": "Cc1ncc(-c2cc3c(cn2)Oc2ccc(-c4cccnc4F)cc2[C@@]32COC(N)=N2)cn1", "note": "[Example 546, (5S)-7-(2-fluoro-3-pyridinyl)-3-(2-methyl-5-pyrimidinyl)spiro[chromeno[2,3-c]pyridine-5,4′-[1,3]oxazol]-2′-amine]", "IC50": 0.0103},
      {"smiles": "NC1=N[C@@]2(CO1)c1cc(-c3ccnc(F)c3)ccc1Oc1cnc(C3=CCOCC3)cc12", "note": "[Example 547, (5S)-3-(3,6-dihydro-2H-pyran-4-yl)-7-(2-fluoro-4-pyridinyl)spiro[chromeno[2,3-c]pyridine-5,4′-[1,3]oxazol]-2′-amine]", "IC50": 0.0261},
      {"smiles": "NC1=N[C@@]2(CO1)c1cc(-c3ccnc(F)c3)ccc1Oc1cnc(-c3ccnc(F)c3)cc12", "note": "[Example 548, (5S)-3,7-bis(2-fluoro-4-pyridinyl)spiro[chromeno[2,3-c]pyridine-5,4′-[1,3]oxazol]-2′-amine]", "IC50": 0.055},
      {"smiles": "NC1=N[C@@]2(CO1)c1cc(-c3cc(F)cnc3F)ccc1Oc1cnc(-c3ccnc(F)c3)cc12", "note": "[Example 549, (5S)-7-(2,5-difluoro-3-pyridinyl)-3-(2-fluoro-4-pyridinyl)spiro[chromeno[2,3-c]pyridine-5,4′-[1,3]oxazol]-2′-amine]", "IC50": 0.029},
      {"smiles": "NC1=N[C@@]2(CO1)c1cc(-c3c(F)ccnc3F)ccc1Oc1c(F)cc(C3=CCOCC3)cc12", "note": "[Example 565, (4S)-7′-(2,4-difluoro-3-pyridinyl)-2′-(3,6-dihydro-2H-pyran-4-yl)-4′-fluoro spiro[1,3-oxazole-4,9′-xanthen]-2-amine]", "IC50": 0.002},
      {"smiles": "CC(C)(C#N)COc1cc(F)c2c(c1)[C@]1(COC(N)=N1)c1cc(-c3c(F)ccnc3F)ccc1O2", "note": "[Example 566, 3-(((4S)-2-amino-7′-(2,4-difluoro-3-pyridinyl)-4′-fluorospiro[1,3-oxazole-4,9′-xanthen]-2′-yl)oxy)-2,2-dimethylpropanenitrile]", "IC50": 0.002},
      {"smiles": "NC1=N[C@@]2(CO1)c1cc(-c3cccnc3F)ccc1Oc1cnc(-c3cncs3)cc12", "note": "[Example 576, (5S)-7-(2-fluoro-3-pyridinyl)-3-(1,3-thiazol-5-yl)spiro[chromeno[2,3-c]pyridine-5,4′-[1,3]oxazol]-2′-amine]", "IC50": 0.0046},
      {"smiles": "CC1(C#Cc2cnc3c(c2)[C@]2(CSC(N)=N2)c2cc(-c4cccnc4F)ccc2O3)COC1", "note": "[Example 586, (5S)-7-(2-fluoro-3-pyridinyl)-3-((3-methyl-3-oxetanyl)ethynyl)spiro[chromeno[2,3-b]pyridine-5,4′-[1,3]thiazol]-2′-amine]", "IC50": 0.002},
      {"smiles": "NC1=N[C@@]2(CS1)c1cc(-c3cccnc3F)ccc1Oc1ncc(-c3cccnc3F)cc12", "note": "[Example 587, (5S)-3,7-bis (2-fluoro-3-pyridinyl)spiro[chromeno[2,3-b]pyridine-5,4′-[1,3]thiazol]-2′-amine]", "IC50": 0.002},
      {"smiles": "NC1=N[C@@]2(CS1)c1cc(-c3cccc(Cl)c3)ccc1Oc1cnc(Cl)cc12", "note": "[Example 593, (5S)-3-chloro-7-(3-chlorophenyl)spiro[chromeno[2,3-c]pyridine-5,4′-[1,3]thiazol]-2′-amine]", "IC50": 0.0316},
      {"smiles": "NC1=N[C@@]2(CS1)c1cc(-c3cccnc3F)ccc1Oc1cnc(Cl)cc12", "note": "[Example 594, (5S)-3-chloro-7-(2-fluoro-3-pyridinyl)spiro[chromeno[2,3-c]pyridine-5,4′-[1,3]thiazol]-2′-amine]", "IC50": 0.0531},
      {"smiles": "NC1=N[C@@]2(CS1)c1cc(-c3cncc(F)c3)ccc1Oc1cnc(Cl)cc12", "note": "[Example 595, (5S)-3-chloro-7-(5-fluoro-3-pyridinyl)spiro[chromeno[2,3-c]pyridine-5,4′-[1,3]thiazol]-2′-amine]", "IC50": 0.142},
      {"smiles": "NC1=N[C@]2(CS1)c1cc(-c3cccc(C4=CCOCC4)c3)ccc1Oc1cnc(C3=CCOCC3)cc12", "note": "[Example 596, (5R)-3-(3,6-dihydro-2H-pyran-4-yl)-7-(3-(3,6-dihydro-2H-pyran-4-yl)phenyl)spiro[chromeno[2,3-c]pyridine-5,4′-[1,3]thiazol]-2′-amine]", "IC50": 0.0478},
      {"smiles": "NC1=N[C@@]2(CS1)c1cc(Br)ccc1Oc1c2cc(Cl)nc1F", "note": "[Example 597, (5S)-7-bromo-3-chloro-1-fluorospiro[chromeno[2,3-c]pyridine-5,4′-[1,3]thiazol]-2′-amine]", "IC50": 4.5}
    ]}
  ]
}
